This is an account of results in patent US20090030066A1, “SMALL MOLECULES FOR THE PROTECTION OF PANCREATIC CELLS” (priority 2007, published 2009).

The subject of assay [1] is L-arginine-treated rats. The experiment in a line: L-arginine-treated rat model of necrotic pancreatitis. Type of assay: in vivo. The source says:
L-arginine-treated rats are frequently used experimental tools to model necrotic pancreatitis [Krajewski, E., Krajewski, J., Spodnik, J. H., Figarski, A. and Kunasik-Juraniec, J. (2005) Changes in the morphology of the acinar cells of the rat pancreas in the oedematous and nectoric types of experimental acute pancreatitis. Folia Morphol. 64, 292-303]. L-arginine is a precursor of NO which primarily destroys the exocrine pancreas with subsequent damage of insulin producing islet cells. Just like pancreatitis is often associated with elevated blood glucose level in human patients, extensive damage of pancreas in the L-arginine-treated animal model also results in damaged function of β-cells as indicated by higher blood glucose levels. In this example, the L-arginine-treated rat model was employed to see if CCompound1 could also prevent or reduce deterioration of β-cell function and the damage of the exocrine pancreas.
Male Wistar rats weighing 220-250 g were divided into four groups, each group consisting of 6 animals. To ensure standard conditions animals were starved for 16 hours before the start of the experiment. CCompound1 was first injected 24 hours prior to L-arginine injection, followed by similar daily injections for 5 consecutive days. In the first group, rats remained untreated. On day 0, animals in groups 2-4 were injected 2×2.5 g/kg L-arginine i.p. at one hour intervals. Animals in group 4 also received daily s.c. injection of 4.5 mg/kg of CCompound1 between days −1 and 5. To verify development of acute pancreatitis, 24 hours after L-arginine injections rats in group 2 were anesthetized with 45 mg/kg pentobarbital i.p. and exsanguinated through the abdominal aorta. On day 0, 2, 4 and 6 blood sugar values of the experimental animals were measured after fasting for 8 hours with the C-test; blood samples were taken from the tail. Edema of the pancreatic tissue was assessed by the pancreatic weight/body weight ratio. The animals in the remaining groups were sacrificed on day 7.
For histological examinations, a portion of the head of the pancreas was fixed in 4% neutral formaldehyde solution and embedded in paraffin. Tissue slices were stained with hematoxylin and eosin and examined by light microscopy. Slices were coded and examined blind by a pathologist for the grading of histological alterations. The extent and intensity of pancreatic edema, leukocyte infiltration, acinar vacuolization, hyperemia and tubular transformation were described with scores ranging from 0 to 3. The total histological damage was calculated by adding the scores for the various below listed parameters together.
Hyperemia; defined as the amount of red blood cells in the vessels.
Edema; defined as the widening of interstitial space.
Vacuolization; defined as the formation of vacuoles in the cytoplasm of acinar cells. Vacuolization results from the fusion of zymogene granules and lysosomes.
Inflammation; defined and quantified by the infiltration of the tissue with mononuclear inflammatory cells (lymphocytes, plasma cells, and mast cells).
Necrosis; defined as the measure of the extent of the destruction of normal pancreatic tissue structure.
Tubular transformation; defined as desquamation of acinar cell apical cytoplasm and release of cytoplasm segments into the acinar lumen leading to formation of duct-like tubular complexes. (Elsässer H. P., Adler G and Kern H. F. (1986) Time course and cellular source of pancreatic regeneration following acute pancreatitis in the rat. Pancreas 1 (5) 421-9).
Total histological damage (total damage); defined and calculated by combining the histological scores of the above mentioned parameters (except vacuolization). This value is the generally accepted best representation of the severity of pancreatitis in the art. […]

In assay [2] the test system is RINm5F rat islet β-cells. Briefly: MTT viability of palmitic acid-treated RINm5F islet β-cells. Type of assay: cell-based. Particulars: for A540 (MTT, relative number of viable cells): 24 h, mean ± S.D. n=8. The text has this: In the Examples below, an MTT assay was used to determine the relative number of viable cells after treatments. This calorimetric assay is based on the ability of living cells, but not dead cells, to reduce 3-(4,5-dimethyl thiazol-2-yl)-2,5-diphenyltetrazolium bromide. [Carmichael, J, De Graff, W. G., Gazdar, A. F., Minna, J. D. and Mitchell, J. B. (1987) Evaluation of tetrazolium-based semiautomated calorimetric assay: Assessment of chemosensitivity testing. Cancer Res. 47, 936-942], which is hereby incorporated by reference. For this assay, cells were plated in 96-well plates, and the MTT assay was performed as described in the above article both in untreated and treated cell cultures. The MTT assay also was performed at the time when the treatment was started to allow for assessment of the proliferation and survival rates in the control and treated cell cultures. In the MTT assay, higher values mean proportionally higher numbers of viable cells.
RINm5F rat islet β-cells (ATCC CRL-2058; secondary clone of RIN-m clone secreting only insulin, but no somatostatin or glucagon) were used to determine if CCompound1 could protect them against fatty acid-induced cell death. The medium for propagation: RPMI 1640/10% fetal bovine serum.
Palmitic acid (purchased from Sigma-Aldrich) was dissolved in 200 mM ethanol and then diluted 1:25 with Krebs-Ringer-Hepes buffer containing 20% bovine serum albumin (fraction V, fatty acid-free; from Sigma-Aldrich). The fatty acid mixture was gently agitated at 37° C. under nitrogen overnight. The cells were seeded into 96-well plates at a density of 8,000 cells per well. When the cultures reached 70% confluence, fatty acid or a corresponding amount of albumin and CCompound1 (suspended in the medium) were added to the medium and incubations continued for 24 hours. This was followed by the MTT assay to determine the relative number of viable cells.

The mark [3] stands for this setting: L-arginine + compound, pancreas, day 7.

As to `Cc1c(OCC(O)C[N+](C)(C)C)cc2c(=O)c3ccccc3sc2c1C.[Cl-]` (stereo not drawn) [CCcompound1, [3-(3,4-Dimethyl-9-oxo-9H-thioxanthen-2-yloxy)-2-hydroxypropyl]trimethyl-ammonium chloride], the “effect on L-arginine-stimulated blood glucose” value in assay [1] (4.5 mg/kg s.c. daily) is given as “reduced L-arginine-stimulated blood glucose to control level”. Besides, the “Blood glucose” value in assay [1] (L-arginine 2×2.5 g/kg i.p. day 0 + compound 4.5 mg/kg s.c. daily days −1 to 5, fasted 8 h, day 0) was 6.28 ± 0.31 mM; in assay [1] (L-arginine + compound 4.5 mg/kg s.c. daily, fasted 8 h, day 2), 6.46 ± 0.33 mM; in assay [1] (L-arginine + compound 4.5 mg/kg s.c. daily, fasted 8 h, day 4) it was 6.26 ± 0.21 mM; in assay [1] (L-arginine + compound 4.5 mg/kg s.c. daily, fasted 8 h, day 6) it was 6.00 ± 0.49 mM. For the same compound, the “effect on tissue necrosis” value in assay [1] (L-arginine + compound) is “significant reduction in tissue necrosis”. Further, the “insulin staining score (scale 0 to 3)” value in assay [1] (L-arginine + compound, day 7, immunohistochemistry of pancreas) is 2.45±0.30. Further, the “Edema histological score (0 to 3)” value in assay [1] (setting [3]) is on record as 1.33 ± 0.21. The “Hyperemia histological score (0 to 3)” value in assay [1] (setting [3]) is listed as 1.17 ± 0.17. Moreover, in assay [1] (setting [3]), the “Inflammation histological score (0 to 3)” value stood at 2.00 ± 0.00. For the same compound, the “Necrosis histological score (0 to 3)” value in assay [1] (setting [3]) was 1.25 ± 0.36. Also, in assay [1] (setting [3]), the “Total damage (sum of histological scores except vacuolization)” value turned out to be 7.75 ± 0.70. Moreover, the “Tubular transformation histological score (0 to 3)” value in assay [1] (setting [3]) came to 2.00 ± 0.37. In addition, in assay [1] (setting [3]), the “Vacuolization histological score (0 to 3)” value was 1.17 ± 0.17. The “protection of endocrine and exocrine pancreatic cells” value in assay [1] (L-arginine-induced necrotic pancreatitis model) was “partially or fully protected both the endocrine and exocrine pancreatic cells”. Moreover, the figures for the “effect on palmitic acid-induced decrease in the number of viable cells” value in assay [2] (5 μM), in assay [2] (10 μM) and in assay [2] (50 μM) were “partially prevented”, “almost fully prevented” and “added to the inhibitory effect of palmitic acid”, respectively. Further, the “A540 (MTT, relative number of viable cells)” value is reported as 1,198 ± 0.086 in assay [2] (palmitic acid 0.5 mM + compound 5 μM), 1,251 ± 0.069 in assay [2] (palmitic acid 0.5 mM + compound 10 μM) and 0.836 ± 0.080 in assay [2] (palmitic acid 0.5 mM + compound 50 μM).
